≈ marks a conversion by molar mass, not a printed value. One block for each molecule: values may come before it.
Key:
Format in all cases: functional
Escherichia coli [1] = experiment: Antibacterial activity against Escherichia coli 1411 assessed as inhibition of bacterial growth incubated for 24 hrs by two-fold serial dilution method
Escherichia coli [2] = experiment: Antibacterial activity against Escherichia coli SM1411 assessed as inhibition of bacterial growth incubated for 24 hrs by two-fold serial dilution method
Escherichia coli [3] = experiment: Antibacterial activity against Escherichia coli NCIM 2256 assessed as inhibition of bacterial growth incubated for 24 hrs by serial twofold dilution assay
Pseudomonas fluorescens = experiment: Antibacterial activity against Pseudomonas fluorescens NCIM 2173 assessed as inhibition of bacterial growth incubated for 24 hrs by serial twofold dilution assay
[4] = test system: Sphingomonas paucimobilis; experiment: Antibacterial activity against Flavobacterium devorans ATCC 10829 assessed as inhibition of bacterial growth incubated for 24 hrs by serial twofold dilution assay
Bacillus subtilis [5] = experiment: Antibacterial activity against Bacillus subtilis assessed as inhibition of bacterial growth relative to control
Escherichia coli [6] = experiment: Antibacterial activity against Escherichia coli assessed as inhibition of bacterial growth relative to control
Staphylococcus aureus [7] = experiment: Antibacterial activity against Staphylococcus aureus assessed as inhibition of bacterial growth by broth dilution assay
Bacillus subtilis [8] = experiment: Antibacterial activity against Bacillus subtilis assessed as inhibition of bacterial growth by broth dilution assay
Escherichia coli [9] = experiment: Antibacterial activity against Escherichia coli assessed as zone of inhibition incubated for 3 days by cup plate agar diffusion assay; settings: time 3 day
Bacillus subtilis [10] = experiment: Antibacterial activity against Bacillus subtilis assessed as zone of inhibition incubated for 3 days by cup plate agar diffusion assay; settings: time 3 day
Pseudomonas aeruginosa [11] = experiment: Antibacterial activity against Pseudomonas aeruginosa assessed as zone of inhibition incubated for 3 days by cup plate agar diffusion assay; settings: time 3 day
Staphylococcus aureus [12] = experiment: Antibacterial activity against Staphylococcus aureus assessed as zone of inhibition incubated for 3 days by cup plate agar diffusion assay; settings: time 3 day
Pseudomonas = experiment: Antibacterial activity against Pseudomonas assessed as zone of inhibition
Staphylococcus aureus [13] = experiment: Antibacterial activity against Staphylococcus aureus MTCC 96 assessed as inhibition of bacterial growth incubated for 18 to 20 hrs by broth microdilution assay; settings: time 18-20 hrs
Escherichia coli [14] = experiment: Antibacterial activity against Escherichia coli ATCC 8739 assessed as inhibition of bacterial growth incubated for 24 hrs by microbroth dilution assay
Enterococcus faecalis = experiment: Antibacterial activity against Enterococcus faecalis PCM 2673 assessed as inhibition of bacterial growth incubated for 24 hrs by microbroth dilution assay
Escherichia coli [15] = experiment: Antibacterial activity against Escherichia coli MTCC 443 assessed as inhibition of bacterial growth incubated for 18 to 20 hrs by broth microdilution assay; settings: time 18-20 hrs
Staphylococcus aureus [16] = experiment: Antibacterial activity against Staphylococcus aureus assessed as inhibition of bacterial growth by broth micro dilution assay
Escherichia coli [17] = experiment: Antibacterial activity against Escherichia coli assessed as inhibition of bacterial growth by broth micro dilution assay
Bacillus = experiment: Antibacterial activity against Bacillus assessed as inhibition of bacterial growth by broth micro dilution assay
Pseudomonas aeruginosa [18] = experiment: Antibacterial activity against Pseudomonas aeruginosa ATCC 27853 assessed as zone of inhibition incubated for 24 hrs by paper disk method
Escherichia coli [19] = experiment: Antibacterial activity against Escherichia coli ATCC 25922 assessed as zone of inhibition incubated for 24 hrs by paper disk method

MIC (Escherichia coli [1]): > 70 µg/mL | MIC (Escherichia coli [2]): > 70 µg/mL
SMILES: O=c1oc2ccccc2cc1C1=NNC(c2ccc(-c3ccccc3)c(-c3ccccc3)c2)C1 (centres undefined)

MIC (Escherichia coli [3]): 2 µg/mL (≈ 5.24 µM) | MIC (Pseudomonas fluorescens): 2 µg/mL (≈ 5.24 µM) | MIC [4]: 2 µg/mL (≈ 5.24 µM)
SMILES: Cc1cc(OCc2cn(Cc3ccc(Cl)cc3)nn2)cc2oc(=O)ccc12

SMILES: COC(=O)c1nnn(CC(=O)c2cc3cc(Br)ccc3oc2=O)c1C(=O)OC
inhibition (INH) (Bacillus subtilis [5]): 82.2% | inhibition (INH) (Escherichia coli [6]): 88.8%

MIC (Staphylococcus aureus [7]): 0.2 µg/mL (≈ 0.511 µM) | MIC (Bacillus subtilis [8]): 0.8 µg/mL (≈ 2.04 µM)
SMILES: O=c1oc2ccc(Br)cc2cc1-c1cc2ccc3ccccc3c2o1

MIC (Escherichia coli [1]): > 70 µg/mL | MIC (Escherichia coli [2]): > 70 µg/mL
SMILES: O=c1oc2ccccc2cc1C1=NNC(c2ccc(F)cc2)C1 (centres undefined)

MIC (Escherichia coli [1]): > 70 µg/mL | MIC (Escherichia coli [2]): > 70 µg/mL
SMILES: O=c1oc2ccccc2cc1C1=NNC(c2ccc(Br)cc2)C1 (centres undefined)

SMILES: COc1ccc(/C=C/C(=O)c2c(OCc3cnnn3Cc3ccccc3)ccc3c(C)cc(=O)oc23)cc1
inhibition zone (IZ) (Escherichia coli [9]): 28 mm | inhibition zone (IZ) (Bacillus subtilis [10]): 11 mm | inhibition zone (IZ) (Pseudomonas aeruginosa [11]): 9 mm | inhibition zone (IZ) (Staphylococcus aureus [12]): 28 mm

MIC (Staphylococcus aureus [7]): 0.2 µg/mL (≈ 0.724 µM) | MIC (Bacillus subtilis [8]): 0.4 µg/mL (≈ 1.45 µM)
SMILES: Cc1ccc2oc(-c3cc4ccccc4oc3=O)cc2c1

SMILES: O=c1cc(-c2nc3ccccc3[nH]2)c2cc(Cl)ccc2o1
inhibition zone (IZ) (Pseudomonas): 8 mm

SMILES: O=C(N[C@H](CO)[C@H](O)c1ccc([N+](=O)[O-])cc1)C(Cl)Cl [CHLORAMPHENICOL]
MIC (Staphylococcus aureus [13]): 50 µg/mL (≈ 155 µM) | MIC (Escherichia coli [14]): 1.2 µg/mL (≈ 3.71 µM) | MIC (Enterococcus faecalis): 5 µg/mL (≈ 15.5 µM) | MIC (Escherichia coli [15]): 50 µg/mL (≈ 155 µM) | MIC (Escherichia coli [3]): 2 µg/mL (≈ 6.19 µM) | MIC (Pseudomonas fluorescens): 2 µg/mL (≈ 6.19 µM) | MIC [4]: 2 µg/mL (≈ 6.19 µM)

MIC (Staphylococcus aureus [7]): 0.2 µg/mL (≈ 0.511 µM) | MIC (Bacillus subtilis [8]): 6.25 µg/mL (≈ 16 µM)
SMILES: O=c1oc2ccc(Br)cc2cc1-c1cc2c(ccc3ccccc32)o1

MIC (Staphylococcus aureus [16]): 0.8 µg/mL (≈ 3.06 µM) | MIC (Escherichia coli [17]): 1.6 µg/mL (≈ 6.12 µM) | MIC (Bacillus): 3.12 µg/mL (≈ 11.9 µM)
SMILES: COc1ccc2c(C3NNC(=O)N3)cc(=O)oc2c1 (centres undefined)

SMILES: O=C(COc1cc(=O)oc2ccccc12)N(c1ccccc1)c1ccccc1
inhibition zone (IZ) (Pseudomonas aeruginosa [18]): 12 mm | inhibition zone (IZ) (Escherichia coli [19]): 10 mm

SMILES: O=c1cc(-c2nc3ccccc3[nH]2)c2cc(Br)ccc2o1
inhibition zone (IZ) (Pseudomonas): 4.8 mm

SMILES: C[C@@H](NC(=O)COc1cc(=O)oc2ccccc12)c1ccccc1
inhibition zone (IZ) (Pseudomonas aeruginosa [18]): 10 mm | inhibition zone (IZ) (Escherichia coli [19]): 12 mm

SMILES: COc1cc(/C=C/C(=O)c2c(OCc3cnnn3Cc3ccccc3)ccc3c(C)cc(=O)oc23)cc(OC)c1OC
inhibition zone (IZ) (Escherichia coli [9]): 33 mm | inhibition zone (IZ) (Bacillus subtilis [10]): 15 mm | inhibition zone (IZ) (Pseudomonas aeruginosa [11]): 14 mm | inhibition zone (IZ) (Staphylococcus aureus [12]): 35 mm

SMILES: Cc1ccc(/C=C/C(=O)c2c(OCc3cnnn3Cc3ccccc3)ccc3c(C)cc(=O)oc23)cc1
inhibition zone (IZ) (Escherichia coli [9]): 14 mm | inhibition zone (IZ) (Bacillus subtilis [10]): 6 mm | inhibition zone (IZ) (Pseudomonas aeruginosa [11]): 7 mm | inhibition zone (IZ) (Staphylococcus aureus [12]): 17 mm

MIC (Staphylococcus aureus [7]): 0.2 µg/mL (≈ 0.724 µM) | MIC (Bacillus subtilis [8]): 0.2 µg/mL (≈ 0.724 µM)
SMILES: Cc1ccc2cc(-c3cc4ccccc4oc3=O)oc2c1

MIC (Escherichia coli [14]): 200 µg/mL (≈ 544 µM) | MIC (Enterococcus faecalis): 100 µg/mL (≈ 272 µM)
SMILES: COc1ccc(-n2cc(COc3cc(=O)oc4ccccc34)nn2)cc1F

SMILES: Cc1cc(=O)oc2c(C(=O)/C=C/c3ccc(F)cc3)c(OCc3cnnn3Cc3ccccc3)ccc12
inhibition zone (IZ) (Escherichia coli [9]): 27 mm | inhibition zone (IZ) (Bacillus subtilis [10]): 11 mm | inhibition zone (IZ) (Pseudomonas aeruginosa [11]): 10 mm | inhibition zone (IZ) (Staphylococcus aureus [12]): 27 mm

SMILES: N[C@@H]1CONC1=O [CYCLOSERINE]
MIC (Escherichia coli [1]): 16 µg/mL (≈ 157 µM) | MIC (Escherichia coli [2]): 16 µg/mL (≈ 157 µM)

MIC (Escherichia coli [1]): 14 µg/mL (≈ 41.6 µM) | MIC (Escherichia coli [2]): 14 µg/mL (≈ 41.6 µM)
SMILES: COc1cc(C2CC(c3cc4ccccc4oc3=O)=NN2)ccc1O (centres undefined)

MIC (Staphylococcus aureus [13]): 200 µg/mL (≈ 314 µM) | MIC (Escherichia coli [15]): 250 µg/mL (≈ 392 µM)
SMILES: Cc1cc(=O)oc2cc(OC(=O)CNC3N=C(c4ccc(F)cc4)C=C(c4cccc(Oc5ccccc5)c4)S3)c([N+](=O)[O-])cc12 (centres undefined)

MIC (Staphylococcus aureus [13]): 250 µg/mL (≈ 445 µM) | MIC (Escherichia coli [15]): 250 µg/mL (≈ 445 µM)
SMILES: Cc1cc(=O)oc2cc(OC(=O)CNC3N=C(c4ccc(F)cc4)C=C(c4ccc(O)cc4)S3)c([N+](=O)[O-])cc12 (centres undefined)

MIC (Staphylococcus aureus [16]): 25 µg/mL (≈ 94.1 µM) | MIC (Escherichia coli [17]): 25 µg/mL (≈ 94.1 µM) | MIC (Bacillus): 6.25 µg/mL (≈ 23.5 µM)
SMILES: O=C1NNC(c2cc(=O)oc3ccc(Cl)cc23)N1 (centres undefined)

Source: ChEMBL document CHEMBL5230129, “Antibacterial activities with the structure-activity relationship of coumarin derivatives” (2020)
